From US12435128B2, “Method for predicting therapeutic effect of LSD1 inhibitor based on expression of INSM1” (TAIHO PHARMACEUTICAL CO., LTD., priority 2017, dated 2025)
Where a name gives a salt, the structure may show the parent alone. Read-outs that look alike come from different tables or passages of the source.

What was measured:
Assay type in all cases: cell-based
[1] = system: NCI-H146 cells (human small-cell lung cancer cell lines); assay: Cell-growth inhibition test: NCI-H146 cells
Protocol: (§1) Under the following conditions, an in vitro cell-growth inhibition test was performed with respect to HEL cells (human acute myelocytic leukemia cell lines), NCI-H1417 cells (human small-cell lung cancer cell lines), and NCI-H146 cells (human small-cell lung cancer cell lines).
(§2) The cells with the Example compound or with dimethylsulfoxide alone were cultured at 37° C. in a 5% carbon-dioxide-containing incubator for 5 days (HEL cells) or 10 days (NCI-H1417 cells and NCI-H146 cells). After culture, the plate was allowed to stand at room temperature for 30 minutes, and 100 μL of the supernatant was removed from each well to leave 100 μL of the cell culture solution. To each well containing the remaining 100 μL of the cell culture solution, the same amount of CellTiter-Glo 2.0 Assay (Promega, Cat #: G9242) was added. The microplate was shaken with a plate mixer for 1 minute and then allowed to stand in a dark place for 10 minutes. Thereafter, the luminescence intensity of viable cells in each well was measured using a microplate reader (PerkinElmer, EnSpire). […] Cell growth rate(%)=T/C×100 • T: The luminescence intensity in a well to which the test compound was added (count per second) • C: The luminescence intensity in a well to which dimethylsulfoxide alone was added (count per second)

[2] = system: NCI-H1417 cells (human small-cell lung cancer cell lines); assay: Cell-growth inhibition test: NCI-H1417 cells
Protocol: as §1, §2

[3] = system: HEL cells (human acute myelocytic leukemia cell lines); assay: Cell-growth inhibition test: HEL cells; details: read-out: IC50 (nM), Cell-Growth Inhibition Test: HEL Cells
Protocol: as §1, §2

[4] = Homo sapiens, NCI-H146, read-out: IC50 (nM), Cell-Growth Inhibition Test: NCI-H146 Cells
[5] = read-out: IC50 (nM), Cell-Growth Inhibition Test: NCI-H1417 Cells
[6] = NCI-H146 cells, read-out: IC50 (nM), Cell-Growth Inhibition Test: NCI-H146 Cells
[7] = NCI-H1417 cells, read-out: IC50 (nM), Cell-Growth Inhibition Test: NCI-H1417 Cells
[8] = Homo sapiens, NCI-H1417, read-out: IC50 (nM), Cell-Growth Inhibition Test: NCI-H1417 Cells

Structure (SMILES) | IC50 [2, 5] [nM] | IC50 [3] [nM] | IC50 [1, 6] [nM] | further results
CC(C)(O)Cn1ncc2cc(-c3ccc(C(=O)N4[C@@H]5CC[C@H]4[C@@H](N)C5)cc3-c3ccc(C#N)c(F)c3)c(F)c(F)c21 (relative stereo) [Example 195, 5′-((1S,2S,4R)-rel-2-amino-7-azabicyclo[2.2.1]heptane-7-carbonyl)-2′-(6,7-difluoro-1-(2-hydroxy-2-methylpropyl)-1H-indazol-5-yl)-3-fluoro-[1,1′-biphenyl]-4-carbonitrile] |  |  |  | IC50 [1, 4]: 1.28 nM
Cc1noc2cc(-c3ccc(C(=O)N4[C@@H]5CC[C@H]4[C@@H](N)C5)cc3-c3ccc(C#N)c(F)c3)c(F)cc12 (single isomer, unassigned) [Example 202] | 0.62 | 0.24 | 0.73 | 
CCC(O)(CC)Cn1ncc2cc(-c3ccc(C(=O)N4[C@@H]5CC[C@H]4[C@@H](N)C5)cc3-c3ccc(C#N)c(F)c3)c(F)cc21 (single isomer, unassigned) [Example 206] | 0.95 | 0.4 | 1.09 | 
CC(C)(O)Cn1nnc2cc(-c3ccc(C(=O)N4[C@@H]5CC[C@H]4[C@@H](N)C5)cc3-c3ccc(C#N)c(F)c3)c(F)c(Cl)c21 (single isomer, unassigned) [Example 209] |  | 0.24 | 0.22 | 
CC(C)(O)Cn1cc(C(=O)O)c2cc(-c3ccc(C(=O)N4[C@@H]5CC[C@H]4[C@@H](N)C5)cc3-c3ccc(C#N)c(F)c3)c(F)cc21 (single isomer, unassigned) [Example 222] | 41.8 | 38 |  | 
Cn1cc(C(N)=O)c2cc(-c3ccc(C(=O)N4[C@@H]5CC[C@H]4[C@@H](N)C5)cc3-c3ccc(C#N)c(F)c3)c(F)cc21 (single isomer, unassigned) [Example 236] | 11 |  | 28.5 | 
CC(C)(O)Cn1nnc2cc(-c3ccc(C(=O)N4[C@@H]5CC[C@H]4[C@@H](N)C5)cc3-c3ccc(C#N)c(F)c3)c(F)c(C(F)F)c21 (single isomer, unassigned) [Example 246] | 0.81 | 0.37 |  | 
N#Cc1ccc(-c2cc(C(=O)N3[C@@H]4CC[C@H]3[C@@H](N)C4)ccc2-c2cc3nnn(CC4(O)CCC4)c3c(Cl)c2F)cc1F (single isomer, unassigned) [Example 257] |  | 0.13 | 0.39 | 
CC(C)(O)Cn1nnc2cc(-c3ccc(C(=O)N4[C@@H]5CC[C@H]4[C@@H](N)C5)cc3-c3ccc(C#N)c(F)c3)c(F)c(Br)c21 (single isomer, unassigned) [Example 273] |  | 0.27 | 0.63 | 
CC(C)(O)Cn1nnc2cc(-c3ccc(C(=O)N4[C@H]5CC[C@@H]4[C@H](N)C5)cc3-c3ccc(C#N)c(F)c3)c(F)c(C3CC3)c21 (single isomer, unassigned) [Example 279] | 0.9 | 1.59 |  | 
CC(C)(O)Cn1ncc2cc(-c3ccc(CN4[C@@H]5CC[C@H]4[C@@H](N)C5)cc3-c3ccc(C#N)c(F)c3)c(F)cc21 (single isomer, unassigned) [Example 287, dihydrochloride] | 0.1 |  | 0.2 | 
CC(C)(O)Cc1ccc(-c2ccc(CN3[C@@H]4CC[C@H]3[C@@H](N)C4)cc2-c2ccc(C#N)c(F)c2)c(F)c1 (single isomer, unassigned) [Example 290, dihydrochloride] | 1.06 |  | 2.12 | 
Cc1ccc(-c2ccc(C(=O)N3C4CCC3CC(N)C4)cc2-c2ccc(C#N)cc2)cc1 (stereo not drawn) [Example 7, 4-[5-[(3-exo)-3-amino-8-azabicyclo[3.2.1]octane-8-carbonyl]-2-(p-tolyl)phenyl]benzonitrile] |  |  |  | IC50 [2, 7]: 26 nM; IC50 ([3]; HEL cells): 14.8 nM
Cn1cnc2cc(-c3ccc(C(=O)N4C5CCC4CC(N)C5)cc3-c3ccc(C#N)c(F)c3)c(F)cc21 (stereo not drawn) [Example 108, 4-[5-[(3-exo)-3-amino-8-azabicyclo[3.2.1]octane-8-carbonyl]-2-(6-fluoro-1-methyl-benzimidazol-5-yl)phenyl]-2-fluoro-benzonitrile] |  |  |  | IC50 [2, 7]: 3.99 nM; IC50 ([3]; HEL cells): 36.4 nM
Cn1nnc2cc(-c3ccc(C(=O)N4C5CCC4CC(N)C5)cc3-c3ccc(C#N)c(F)c3)c(F)cc21 (stereo not drawn) [Example 125, 4-[5-[(3-endo)-3-amino-8-azabicyclo[3.2.1]octane-8-carbonyl]-2-(6-fluoro-1-methyl-benzotriazol-5-yl)phenyl]-2-fluoro-benzonitrile] |  |  |  | IC50 [2, 7]: 8.43 nM; IC50 ([3]; HEL cells): 7.57 nM
Cn1cnc2cc(-c3ccc(C(=O)N4C5CCC4CC(N)C5)cc3-c3ccc(C#N)c(F)c3)c(F)cc21 (stereo not drawn) [Example 130, 4-[5-[(3-endo)-3-amino-8-azabicyclo[3.2.1]octane-8-carbonyl]-2-(6-fluoro-1-methyl-benzimidazol-5-yl)phenyl]-2-fluoro-benzonitrile] |  |  |  | IC50 [2, 7]: 8.25 nM; IC50 ([3]; HEL cells): 22.2 nM
Cn1c(=O)sc2cc(-c3ccc(C(=O)N4C5CCC4CC(N)C5)cc3-c3ccc(C#N)c(F)c3)ccc21 (stereo not drawn) [Example 133, 4-[5-[(3-endo)-3-amino-8-azabicyclo[3.2.1]octane-8-carbonyl]-2-(3-methyl-2-oxo-1,3-benzothiazol-6-yl)phenyl]-2-fluoro-benzonitrile] |  |  |  | IC50 [2, 7]: 17.9 nM; IC50 ([3]; HEL cells): 17.7 nM
CC(C)(O)Cn1ccc2cc(-c3ccc(C(=O)N4C5CCC4CC(N)C5)cc3-c3ccc(C#N)c(F)c3)c(F)cc21 (stereo not drawn) [Example 136, 5′-((3-endo)-3-amino-8-azabicyclo[3.2.1]octane-8-carbonyl)-3-fluoro-2′-(6-fluoro-1-(2-hydroxy-2-methylpropyl)-1H-indol-5-yl)-[1,1′-biphenyl]-4-carbonitrile] | 2.39 |  |  | 
CC(C)(O)Cn1ncc2cc(-c3ccc(C(=O)N4C5CCC4CC(N)C5)cc3-c3ccc(C#N)c(F)c3)c(F)cc21 (stereo not drawn) [Example 142, 5′-((3-endo)-3-amino-8-azabicyclo[3.2.1]octane-8-carbonyl)-3-fluoro-2′-(6-fluoro-1-(2-hydroxy-2-methylpropyl)-1H-indazol-5-yl)-[1,1′-biphenyl]-4-carbonitrile] | 3.79 | 3.88 |  | 
COCCc1ccc(-c2ccc(C(=O)N3CCCC(N)CC3)cc2-c2ccc(C#N)c(F)c2)c(F)c1 (stereo not shown) [Example 165, 5′-(4-aminoazepan-1-carbonyl)-2″,3-difluoro-4″-(2-methoxyethyl)-[1,1′:2′,1″-terphenyl]-4-carbonitrile] |  |  |  | IC50 [2, 8]: 1.42 nM; IC50 ([3]; Homo sapiens, HEL): 0.62 nM
CC(C)(O)Cn1ccc2cc(-c3ccc(C(=O)C4CC5(CNC5)CN4)cc3-c3ccc(C#N)c(F)c3)c(F)c(F)c21 (stereo not shown) [Example 200, 2′-(6,7-difluoro-1-(2-hydroxy-2-methylpropyl)-1H-indol-5-yl)-3-fluoro-5′-(2,7-diazaspiro[3.4]octane-6-carbonyl)-[1,1′-biphenyl]-4-carbonitrile] |  |  |  | IC50 [2, 8]: 0.18 nM
CCC(O)(CC)Cn1ncc2cc(-c3ccc(C(=O)N4CC[C@H](N)C4)cc3-c3ccc(C#N)c(F)c3)c(F)cc21 [Example 204, (S)-5′-(3-aminopyrrolidine-1-carbonyl)-2′-(1-(2-ethyl-2-hydroxybutyl)-6-fluoro-1H-indazol-5-yl)-3-fluoro-[1,1′-biphenyl]-4-carbonitrile] |  |  |  | IC50 [2, 8]: 1.98 nM
N#Cc1ccc(-c2cc(C(=O)N3CC[C@H](N)C3)ccc2-c2cc3nnn(CC4(O)CCC4)c3c(C(F)F)c2F)cc1F [Example 261, (S)-5′-(3-aminopyrrolidine-1-carbonyl)-2′-(7-(difluoromethyl)-6-fluoro-1-((1-hydroxycyclobutyl)methyl)-1H-benzo[d][1,2,3]triazol-5-yl)-3-fluoro-[1,1′-biphenyl]-4-carbonitrile] |  |  |  | IC50 [1, 4]: 32.3 nM
